In PubChem BioAssay AID2647 (Sanford-Burnham Center for Chemical Genomics, 2010):

System: MDA-MB-435/MDR TRAIL potentiation, ATPlite luminescence, 24 h
Experiment: PubChem AID 2647

CSc1nc(-c2ccc(C)cc2)nc(C(Cl)Cl)n1
cytotoxicity with TRAIL (at 10 µM (top of the series)): 84% | cytotoxicity (compound alone without TRAIL, at 10 µM, stronger effect = higher value): 1%
